Data as given in patent publication US20150315188A1, “COMPOUNDS AND METHODS FOR TREATMENT OF HYPERTENSION” (MEDIVATION TECHNOLOGIES, INC., priority 2012, published 2015).
Marks after values point to notes of the source that are not given here.

Tests used:
human hepatocytes = test: Stability in the presence of human hepatocytes; assay type: in vitro ADME; settings: human hepatocytes, 5 μM, 37° C., average of duplicates; ^a = 0-120 minute time points
Procedure: (§1) Compounds of the invention were tested for stability in the presence of dog, rat and human hepatocytes over a 4 hour period by LC/MS/MS. The study was performed by Integrated Analytical Solutions, Berkeley, Calif.
(§2) Reference Standards and Solutions: Compounds of the invention were stored as powders at ambient temperature in a desiccator and protected from light. Reference stock solutions of Compound Nos. 50a, 50b, 79a, 82, 91a and 178d, as 20 mM in DMSO were prepared and subsequently diluted to 2 mM in MeOH to provide working stock solutions (WSS). Unused standard solutions were stored at −20° C.
(§3) Hepatocyte Preparation: Human (mixed gender), Beagle dog (male) and Sprague Dawley rat (male) cryopreserved hepatocytes were purchased from Life Technologies Corporation. Hepatocytes were removed from liquid nitrogen, quickly thawed in a 37° C. water bath and transferred to Hepatocyte Thawing/Plating Medium (Cryopreserved Hepatocyte Recovery Medium, CHRM, Life Technologies Inc.). The cells were pelleted by slow speed centrifugation (˜100×g, 6 min) and resuspended at a high cell density. Hepatocyte viability was determined by trypan blue exclusion. Hepatocyte incubation medium (Life Technologies, Inc.) was added to generate a cell density of 2.0×10^6 cells/mL.
(§4) Hepatocyte Incubations for Stability: The 2 mM WSS was diluted 1 in 200 in hepatocyte incubation medium (pH 7.4) to 10 μM. A solution containing control compounds was prepared similarly to contain 10 μM each of dextromethorphan and testosterone. The solutions of test compounds and controls at 10 μM in hepatocyte incubation medium were pre-incubated at 37° C. for 10 min. Aliquots (250 μL) of hepatocyte suspensions (at 2.0×10^6 cells/mL) were transferred to appropriate 48-well plates and pre-incubated at 37° C. for 10 minutes. Metabolism was initiated by adding 250 μL pre-incubated medium (containing test drug) to wells containing cells. A negative control reaction excluding hepatocytes was used to monitor aqueous stability and/or non-specific adsorption. The final reaction mixtures contained 5 μM of test or control compound and 1.0×10^6 cells/mL. All reactions were performed in duplicate and carried at 37° C. in an incubator. Dextromethorphan and testosterone were used as control drugs to verify hepatocyte activity.
(§5) Aliquots were removed from each metabolism reaction at 0, 0.5, 2 and 4 hours. The reactions were terminated by adding each aliquot to a vessel containing 2× volumes (80 μL) of Internal Standard Solution (acetonitrile containing 50 ng/mL 2-(2,8-dimethyl-3,4-dihydro-1H-pyrido[4,3-b]indol-5(2H)-yl)-1-(pyridin-4-yl)ethanol (ISS1), 50 ng/mL of 2-(2,8-dimethyl-3,4-dihydro-1H-pyrido[4,3-b]indol-5(2H)-yl)-1-(piperidin-1-yl)ethanone (ISS2) and 5 ng/mL diphenhydramine. Terminated reactions were centrifuged at 6000 g for 30 mins at 4° C. to remove the precipitated proteins and cell debris. Following centrifugation, 20 μL of each supernatant was transferred to a deep-well microplate and diluted with 5× volumes (100 μL) of 0.2% formic acid in water. Compound 178d samples were diluted with 5× volumes (100 μL) of 0.1% HFBA in water. Samples were analyzed by LC/MS/MS.
(§6) Calculation of Metabolism Parameters: Percent remaining was measured by dividing the analyte/IS peak area ratio at the designated sample time by the peak area ratio at time 0. ISS1 served as the IS for Compound No. 178d. ISS2 served as the IS for Compound nos. 50a, 50b, 79a, 82 and 91a. The metabolic half-life (T1/2) was calculated using all time points unless otherwise noted. The T1/2 values were calculated as 0.693/k, where k is the slope of the log analyte/internal standard peak area ratio versus time. Metabolism rate was calculated by dividing the starting concentration of substrate by the concentration of hepatocytes, then dividing by the T1/2 value.

dog hepatocytes = test: Stability in the presence of dog hepatocytes; assay type: in vitro ADME, Beagle dog; settings: dog hepatocytes, 5 μM, 37° C., average of duplicates; ^a = 0-120 minute time points
Procedure: as §1, §2, §3, §4, §5, §6

rat hepatocytes = test: Stability in the presence of rat hepatocytes; assay type: in vitro ADME, Sprague Dawley rat; settings: rat hepatocytes, 5 μM, 37° C., average of duplicates; ^a = 0-120 minute time points
Procedure: as §1, §2, §3, §4, §5, §6

T1/2 Human (human hepatocytes): 82^a min | T1/2 Dog (dog hepatocytes): 100^a min | T1/2 Rat (rat hepatocytes): >4 h
Structure (SMILES): Cc1cc2c3c(n(CC(C)(O)c4ccncc4)c2cc1Cl)CCN1CCCC31 (single isomer, unassigned) [50b]
